Experiments:
Assay in all cases: Solid tumour and haematological malignancy assay (CellTiterGlo)
Type in all cases: cell-based
HepG2 = conditions: Homo sapiens, HepG2, 72 hr
Summary of the method: (§1)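 Compound pre-warmed to 37° C in medium, added to cells in duplicate; incubated 3 days in CO2 incubator; viability measured with CellTiterGlo. DMSO final 0.5%.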

MCF7 = conditions: Homo sapiens, MCF7, MCF-7, 72 hr
Summary of the method: as §1

HEL92.1.7 = conditions: Homo sapiens, HEL.92.1.7, 72 hr
Summary of the method: as §1

HT29 = conditions: Homo sapiens, HT-29, HT29, 72 hr
Summary of the method: as §1

MiaPaCa-2 = conditions: Homo sapiens, MIA PaCa-2, Mia-Pa-Ca-2, 72 hr
Summary of the method: as §1

K562 = conditions: Homo sapiens, K562, 72 hr
Summary of the method: as §1

KG-1 = conditions: Homo sapiens, KG-1, 72 hr
Summary of the method: as §1

HL-60 = conditions: Homo sapiens, HL-60, 72 hr
Summary of the method: as §1

CCRFCEM = conditions: Homo sapiens, CCRF-CEM, 72 hr
Summary of the method: as §1

Z138 = conditions: Homo sapiens, Z-138, 72 hr
Protocol: (§2) In vitro viability assay were performed to assess the effects of compounds on cell viability in selected cell lines over 72 hr using the CellTiterGlo (CTG, Promega-G7573) assay. The tests were performed in duplicates with treatment of compounds at 9 points, 3.16 folds titration in 96 well plates over ˜72 hr. The compound starting concentrations were […]. Cell viability assay using CellTiterGlo in 96-well plate were performed. Compound treatment 72 hrs, standard growth conditions, duplicates. Compounds were dissolved to 40 mM with thawed […]. Compounds were serially diluted at 3.16 fold in thawed DMSO, and warmed to 37° C. before being dissolved in media ([…]). After compounds were dissolved in media, media containing compounds were warmed to 37° C. in incubator and then compounds in media were added to cell plates ([…]) in duplicates. The compounds' final concentrations were from […] to 19.9 nM. All compound solubilities were checked and recorded again, then the plates were transferred to CO2 tissue culture incubator immediately and incubated for 3 days. DMSO final concentration is 0.5%.

RL = conditions: Homo sapiens, 72 hr
Protocol: as §2

BxPC-3-Luc = conditions: BxPC-3-Luc, 72 hr; read-out: EC50 (absolute EC50)
Protocol: as §2

MV4-11 = conditions: Homo sapiens, MV4-11, 72 hr
Protocol: as §2

HS445 = conditions: Hs 445, HS445, 72 hr
Protocol: as §2

THP-1 = conditions: Homo sapiens, THP-1, 72 hr
Protocol: as §2

RPMI-8226 = conditions: Homo sapiens, RPMI-8226, 72 hr
Protocol: as §2

SW620 = conditions: Homo sapiens, SW-620, SW620, 72 hr
Protocol: as §2

MOLT-4 = conditions: Homo sapiens, MOLT-4, 72 hr
Protocol: as §2

NCI-H929 = conditions: Homo sapiens, NCI-H929, 72 hr
Protocol: as §2

EC50 (HepG2; read-out: EC50 (absolute EC50)): > 100 µM
EC50 (MCF7; read-out: EC50 (absolute EC50)): > 100 µM
EC50 (HEL92.1.7; read-out: EC50 (absolute EC50)): 5 to 15 µM
EC50 (HT29; read-out: EC50 (absolute EC50)): > 100 µM
EC50 (MiaPaCa-2; read-out: EC50 (absolute EC50)): > 100 µM
EC50 (K562; read-out: EC50 (absolute EC50)): > 100 µM
EC50 (KG-1; read-out: EC50 (absolute EC50)): > 100 µM
EC50 (HL-60; read-out: EC50 (absolute EC50)): 15 to 100 µM
EC50 (CCRFCEM; read-out: EC50 (absolute EC50)): 15 to 100 µM
EC50 (Z138; read-out: EC50 (absolute EC50)): 15 to 100 µM
EC50 (RL; read-out: EC50 (absolute EC50)): 15 to 100 µM
EC50 (BxPC-3-Luc): > 100 µM
EC50 (MV4-11; read-out: EC50 (absolute EC50)): 15 to 100 µM
EC50 (HS445; read-out: EC50 (absolute EC50)): > 100 µM
EC50 (THP-1; read-out: EC50 (absolute EC50)): > 100 µM
EC50 (RPMI-8226; read-out: EC50 (absolute EC50)): > 100 µM
EC50 (SW620; read-out: EC50 (absolute EC50)): > 100 µM
EC50 (MOLT-4; read-out: EC50 (absolute EC50)): > 100 µM
EC50 (NCI-H929; read-out: EC50 (absolute EC50)): 5 to 15 µM
SMILES: Nc1nc(Cl)nc2c1ncn2[C@@H]1O[C@H](CO)C[C@H]1O [2-Cl-cordycepin, 3′-deoxy-2-chloroadenosine, reference compound]
Emax (HepG2; Table VII, read-out: MI %): 31.1%
Emax (MCF7; Table VII, read-out: MI %): -0.9%
Emax (HEL92.1.7; Table VII, read-out: MI %): 94.3%
Emax (HT29; Table VII, read-out: MI %): 4.4%
Emax (MiaPaCa-2; Table VII, read-out: MI %): 17.7%
Emax (K562; Table VII, read-out: MI %): 37.6%
Emax (KG-1; Table VII, read-out: MI %): 4.3%
Emax (HL-60; Table VII, read-out: MI %): 84.4%
Emax (CCRFCEM; Table VII, read-out: MI %): 98.1%
Emax (Z138; Table VII, read-out: MI %): 99.5%
Emax (RL; Table VII, read-out: MI %): 84.1%
Emax (MV4-11; Table VII, read-out: MI %): 100%
Emax (HS445; Table VII, read-out: MI %): -1.9%
Emax (THP-1; Table VII, read-out: MI %): 24.1%
Emax (RPMI-8226; Table VII, read-out: MI %): 29%
Emax (SW620; Table VII, read-out: MI %): 36.3%
Emax (MOLT-4; Table VII, read-out: MI %): 80.4%
Emax (NCI-H929; Table VII, read-out: MI %): 93.6%
